Laboratory results from patent publication US20200405696A1, “INHIBITORS OF INDOLEAMINE 2,3-DIOXYGENASE AND/OR TRYPTOPHAN 2,3-DIOXYGENASE” (IDORSIA PHARMACEUTICALS LTD, priority 2018, published 2020).

What was measured:
[1] = molecular target: T1, Recombinant full-length human IDO1 (Homo sapiens, UniProt P14902); test: IDO1 enzymatic assay (NFK quantified by LCMS); format: biochemical; conditions: 2 nM enzyme, 5 μM L-tryptophan, pH6.5, 30 minutes pre-incubation at RT; mean values when measured multiple times; read-out: hIDO activity (IC50 in nM)
T1 construct: Recombinant full-length human IDO1 with a N-terminal hexahistidine tag; hexahistidine (His6) (N); made in house; host or cells: E. coli
T1 sequence (P14902 whole entry): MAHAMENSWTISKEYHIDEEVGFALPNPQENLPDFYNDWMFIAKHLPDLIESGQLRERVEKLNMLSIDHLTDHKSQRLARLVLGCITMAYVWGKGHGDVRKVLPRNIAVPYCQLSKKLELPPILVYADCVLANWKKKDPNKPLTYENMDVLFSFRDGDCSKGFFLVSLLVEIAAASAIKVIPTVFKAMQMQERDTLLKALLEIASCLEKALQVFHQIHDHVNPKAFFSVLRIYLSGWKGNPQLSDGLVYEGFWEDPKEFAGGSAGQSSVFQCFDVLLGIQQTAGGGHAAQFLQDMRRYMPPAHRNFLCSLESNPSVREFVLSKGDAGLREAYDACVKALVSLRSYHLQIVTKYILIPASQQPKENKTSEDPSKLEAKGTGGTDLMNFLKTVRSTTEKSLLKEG
How it was run: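 His-tagged human IDO1 (2 nM) in pH 6.5 phosphate buffer with ascorbate, methylene blue and catalase was preincubated with compound (10 μM–0.5 nM, 0.6% DMSO) for 30 min at RT. The reaction then ran with 5 μM L-Trp for 30 min. NFK was measured by LCMS against a d5-Trp standard, and IC50 was obtained by four-parameter fit.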

[2] = molecular target: T2, Recombinant human TDO comprising amino acids 19-407 (Homo sapiens, UniProt P48775); test: TDO2 enzymatic assay (NFK quantified by LCMS); format: biochemical; conditions: 15 nM enzyme, 200 μM L-tryptophan, pH7, 30 minutes pre-incubation at RT; mean values when measured multiple times; read-out: hTDO activity (IC50 in nM)
T2 construct: Recombinant human TDO comprising amino acids 19-407 with a N-terminal hexahistidine tag; hexahistidine (His6) (N); made in house; host or cells: E. coli
T2 sequence (P48775 19-406 limits assumed): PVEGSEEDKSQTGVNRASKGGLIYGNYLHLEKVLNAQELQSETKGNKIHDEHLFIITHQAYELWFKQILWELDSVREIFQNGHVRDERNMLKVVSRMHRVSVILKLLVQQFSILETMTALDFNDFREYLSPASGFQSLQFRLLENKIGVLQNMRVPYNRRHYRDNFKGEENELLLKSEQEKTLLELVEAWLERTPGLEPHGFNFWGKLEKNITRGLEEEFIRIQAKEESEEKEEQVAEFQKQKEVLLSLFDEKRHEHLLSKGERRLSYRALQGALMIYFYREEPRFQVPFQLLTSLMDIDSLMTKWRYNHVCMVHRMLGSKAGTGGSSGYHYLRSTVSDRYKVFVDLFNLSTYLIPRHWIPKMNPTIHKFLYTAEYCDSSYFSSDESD
How it was run: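 NFK formed over 30 min at RT from 200 μM L-tryptophan was measured by LCMS, normalized to d5-tryptophan, after compound (0.5 nM–10 μM, duplicates, 0.6% DMSO) was preincubated 30 min with 15 nM recombinant His-tagged TDO 19-407 in phosphate buffer pH 7. IC50 from four-parameter logistic fit; repeats averaged.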

IC50 [1] | IC50 [2] | Structure (SMILES)
13.7 nM | 9020 nM | COc1ccc(-n2nnc(C(O)c3c(C4CC4)sc4cncn34)c2C2CC2)cc1 (racemic) [Example 281, rac-(2-Cyclopropyl-imidazo[5,1-b]thiazol-3-yl)-[5-cyclopropyl-1-(4-methoxy-phenyl)-1H-[1,2,3]triazol-4-yl]-methanol]
20.5 nM | 830 nM | CC=Cc1sc2cncn2c1C(O)c1cn(-c2ccc(OC)cc2)nn1 (racemic) [Example 263, rac-[1-(4-Methoxy-phenyl)-1H-[1,2,3]triazol-4-yl]-[((E)-2-(prop-1-enyl))-imidazo[5,1-b]thiazol-3-yl]-methanol]
88.8 nM | 8670 nM | COc1ccc(-n2cc(C(O)c3c(-c4ccccc4F)sc4cncn34)nn2)cc1 (racemic) [Example 287, rac-[2-(2-Fluoro-phenyl)-imidazo[5,1-b]thiazol-3-yl]-[1-(4-methoxy-phenyl)-1H-[1,2,3]triazol-4-yl]-methanol]
50.1 nM | > 10200 nM | OCc1ccc(-n2cc(C(O)c3c(C4CC4)sc4cncn34)nn2)cc1 (racemic) [Example 310, rac-(2-Cyclopropyl-imidazo[5,1-b]thiazol-3-yl)-[1-(4-hydroxymethyl-phenyl)-1H-[1,2,3]triazol-4-yl]-methanol]

The remaining lines, values behind:

Structure (SMILES) | IC50 [1] | IC50 [2]
COc1ccccc1-n1cc(C(O)c2c(C3CC3)sc3cncn23)nn1 (racemic) [Example 7, rac-(2-Cyclopropyl-imidazo[5,1-b]thiazol-3-yl)-[1-(2-methoxy-phenyl)-1H-[1,2,3]triazol-4-yl]-methanol] | 50.9 nM | > 10200 nM
COc1cccc(-c2ccc(C(O)c3c(C4CC4)sc4cncn34)s2)c1 (racemic) [Example 167, rac-(2-Cyclopropyl-imidazo[5,1-b]thiazol-3-yl)-[5-(3-methoxy-phenyl)-thiophen-2-yl]-methanol] | 639 nM | > 10200 nM
OC(c1cn(-c2ccc3cc[nH]c3c2)nn1)c1c(C2CC2)sc2cncn12 (racemic) [Example 21, rac-(2-Cyclopropyl-imidazo[5,1-b]thiazol-3-yl)-[1-(1H-indol-6-yl)-1H-[1,2,3]triazol-4-yl]-methanol] | 18.1 nM | > 10200 nM
Cc1sc2cncn2c1C(O)c1cn(-c2ccc3[nH]ccc3c2)nn1 (racemic) [Example 59, rac-[1-(1H-Indol-5-yl)-1H-[1,2,3]triazol-4-yl]-(2-methyl-imidazo[5,1-b]thiazol-3-yl)-methanol] | 50.4 nM | 8400 nM
OC[C@H](O)COc1ccc(-n2cc(C(O)c3c(C4CC4)sc4cncn34)nn2)cc1 (mixture of isomers) [Example 202, (S)-3-(4-{4-[(R)-(2-Cyclopropyl-imidazo[5,1-b]thiazol-3-yl)-hydroxy-methyl]-[1,2,3]triazol-1-yl}-phenoxy)-propane-1,2-diol and (S)-3-(4-{4-[(S)-(2-Cyclopropyl-imidazo[5,1-b]thiazol-3-yl)-hydroxy-methyl]-[1,2,3]triazol-1-yl}-phenoxy)-propane-1,2-diol] | 15 nM | > 10200 nM
N#Cc1cc(-n2cc(C(O)c3c(C4CC4)sc4cncn34)nn2)ccc1OC(F)(F)F (racemic) [Example 199, rac-5-{4-[(2-Cyclopropyl-imidazo[5,1-b]thiazol-3-yl)-hydroxy-methyl]-[1,2,3]triazol-1-yl}-2-trifluoromethoxy-benzonitrile] | 73.1 nM | > 10200 nM
OC(c1cn(-c2ccccc2)nn1)c1c(C(F)(F)F)sc2cncn12 (racemic) [Example 133, rac-(1-Phenyl-1H-[1,2,3]triazol-4-yl)-(2-trifluoromethyl-imidazo[5,1-b]thiazol-3-yl)-methanol] | 24.2 nM | > 10200 nM
OC(c1cn(-c2ccc(OCC(F)(F)F)nc2)nn1)c1c(C2CC2)sc2cncn12 (racemic) [Example 78, rac-(2-Cyclopropyl-imidazo[5,1-b]thiazol-3-yl)-{1-[6-(2,2,2-trifluoro-ethoxy)-pyridin-3-yl]-1H-[1,2,3]triazol-4-yl}-methanol] | 17.4 nM | > 10200 nM
